{
  "source": "patent US20220409576A1",
  "about": "“NANO-PARTICULATE COMPOSITIONS FOR STIMULATING HOST INNATE IMMUNE RESPONSES FOR THERAPEUTIC APPLICATIONS” (priority 2019, published 2022)",
  "key": {"intracellular S. aureus": {"tested_on": "intracellular S. aureus", "assay": "Bactericidal activity of RAW 264.7 macrophages against intracellular S. aureus (antibiotic protection assay, viable colony number)", "assay_type": "cell-based, Staphylococcus aureus", "conditions": "cells with IONPs 3 mg/mL + VC 500 μM plus chelator BIP 500 μM or scavenger THI 200 mM, FIG. 3C", "method": "A. The quantification of ROS generation in the RAW 264.7 cells treated with varying concentration of IONPs (0-3 mg/mL). B. The colony number of viable bacteria (S. aureus) in the lysed RAW 264.7 macrophages treated with varying concentration of IONPs (0-3 mg/mL) following the exposure of live S. aureus.\n(A-B) The quantification of ROS generation (A) and viable colony number of S. aureus (B) in the RAW 264.7 cells treated with VC (500 μM) alone, IONP (3 mg/mL) alone, or IONP (3 mg/mL)+VC (500 μM). (C-D) The quantification of ROS generation (C) and viable colony number of S. aureus (D) in the RAW 264.7 cells treated with IONP (3 mg/mL) alone, or IONP (3 mg/mL)+H2O2 (100 μM). E. Representative images of surviving S. aureus colony on agar plates from lysed RAW264.7 macrophages treated with H2O2 (100 μM), IONP (3 mg/mL), or IONP+H2O2. N=3-5 per group, *p<0.05\nA. The intracellular level of ferrous iron (Fe2+) in RAW 264.7 cells treated with IONPs (3 mg/mL) alone, IONPs with VC (500 μM), or IONPs with VC and BIP (iron chelator, 500 μM). […] The bactericidal activity of RAW 264.7 cells treated with IONPs (3 mg/mL) with VC (500 μM), IONPs with VC and BIP (500 μM), or IONPs with VC and TIH (200 mM), assessed by antibiotic protection assay. *p<0.05, N=3-5 per group. […]"}, "RAW 264.7 cells": {"tested_on": "RAW 264.7 cells", "assay": "Intracellular hydroxyl radical generation in RAW 264.7 cells", "assay_type": "cell-based", "conditions": "RAW 264.7 cells with IONPs 3 mg/mL + VC 500 μM, BIP 500 μM, 24 h, FIG. 3B", "method": "A. The intracellular level of ferrous iron (Fe2+) in RAW 264.7 cells treated with IONPs (3 mg/mL) alone, IONPs with VC (500 μM), or IONPs with VC and BIP (iron chelator, 500 μM). B. The intracellular level of hydroxyl radical concentration in RAW 264.7 cells treated with IONPs (3 mg/mL) alone, IONPs with VC (500 μM), or in combination with BIP (500 μM) for 24 h. C. The bactericidal activity of RAW 264.7 cells treated with IONPs (3 mg/mL) with VC (500 μM), IONPs with VC and BIP (500 μM), or IONPs with VC and TIH (200 mM), assessed by antibiotic protection assay. *p<0.05, N=3-5 per group.\nTo further determine if the VC-mediated ROS generation and bactericidal activity were associated with a Fenton reaction due to increased release of Fe^2+, the levels of Fe^2+ were compared between RAW 264.7 cells treated with IONPs alone and IONPs with VC. […] Among various forms of ROS, hydroxyl radical ([…]) is highly cytotoxic by causing oxidative damage to DNA and cell membrane. In the Fenton reaction-mediated generation of ROS, the oxidation of Fe^2+ by hydrogen peroxide (H2O2) produces highly reactive hydroxyl radical."}},
  "data": [
    {"molecule": "c1ccc(-c2ccccn2)nc1", "note": "[BIP]", "values": [
      {"measurement": "IONPs/VC-induced bactericidal activity of RAW 264.7 cells", "setting": "intracellular S. aureus", "value": "decrease in bactericidal activity"},
      {"measurement": "IONPs and VC-induced generation of hydroxyl radicals", "setting": "RAW 264.7 cells", "value": "significantly decreased"}
    ]}
  ]
}
